Tested on: Alternaria solani
Experiment: Microtest: activity against early blight caused by Alternaria solani (micro titer plate, absorption at 405 nm)
Format: cell-based
Details: single compound, 7 days after inoculation, 0 = growth as untreated control, 100 = no growth
Method: The stock solutions were mixed according to the ratio, pipetted onto a micro titer plate (MTP) and diluted with water to the stated concentrations. A spore suspension of Alternaria solani in an aqueous biomalt or yeast-bactopeptone-glycerine or DOB solution was then added. The plates were placed in a water vapor-saturated chamber at a temperature of 18° C. Using an ab-sorption photometer, the MTPs were measured at 405 nm 7 days after the inoculation. The measured parameters were compared to the growth of the active compound-free control variant (100%) and the fungus-free and active compound-free blank value to determine the relative growth in % of the pathogens in the respective active compounds. These percentages were converted into efficacies. […] The expected efficacies of active compound mixtures were determined using Colby's formula [R. S. Colby, “Calculating synergistic and antagonistic responses of herbicide combinations”, Weeds 15, 20-22 (1967)] and compared with the observed efficacies.

N#Cc1ccc(Oc2ccc(C(F)(F)C(O)(Cn3ncnc3S)c3ccc(F)cc3F)nc2)cc1 (stereo not shown) [Compound I, 4-[[6-[2-(2,4-difluorophenyl)-1,1-difluoro-2-hydroxy-3-(5-sulfanyl-1,2,4-triazol-1-yl)propyl]-3-pyridyl]oxy]benzonitrile]
Observed efficacy (0.25 ppm): 7 | Observed efficacy (1 ppm): 8 | Observed efficacy (4 ppm): 30

Cc1cccc(-n2nnn(C)c2=O)c1COc1ccn(-c2ccc(Cl)cc2)n1 [Compound II, 1-[2-[[1-(4-chlorophenyl)pyrazol-3-yl]oxymethyl]-3-methyl-phenyl]-4-methyl-tetrazol-5-one, reference compound]
Observed efficacy (0.016 ppm): 11

Reference: patent US11998010B2, “Pesticidal mixtures” (BASF SE, priority 2018, dated 2024)
